Reference: patent US12258561B2, “Compositions and methods to promote bone formation and their uses including for the treatment of cancer” (THE RESEARCH FOUNDATION FOR THE STATE UNIVERSITY OF NEW YORK, priority 2014, dated 2025)

Columns and labels:
[1] = test system: MSC; assay: Assay of cell number (MTT) in MSC cultures; assay type: cell-based, human; settings: 1-mM
Method: (§1) Assay of Cell Number: Following the addition of 1-mM naloxone or 1-mM naltrexone, viable cell number was determined with the MTT assay. After 72-hours and 120-hours, MTT (5 mg/ml (w/v), Sigma) was added to each well, incubated for 2-hours, after which the cells lysed with 500-μl of DMSO (Sigma). MTT was measured at 570-nm and the effects of therapy on cell proliferation were determined by normalizing treated wells relative to mean values from non-treated wells: Fold change in cell number=100*[treated cells optical density/mean control optical density].

[2] = test system: monocyte cultures; assay: Assay of cell number (MTT) in monocyte cultures; assay type: cell-based, human; settings: naloxone added to monocyte cultures
Excerpt: Methods: Human Bone Marrow was Collected from Consenting Adult Patients undergoing either an elective primary proximal femoral total hip arthroplasty or elective primary distal femoral total knee arthroplasty (n=6, mean age 65) as a part of an IRB approved study. Human MSC were derived from the adherent fraction of cells derived from each whole bone marrow aspirate collected, while the monocyte population was collected from the non-adherent fraction of the bone marrow. The monocyte fraction was enriched through sub-culture with 100-ng/mL recombinant human macrophage colony-stimulating factor (MCSF; Wyeth). In parallel experiments described below, the femurs from 3-week (n=10) and 16-week (n=20) old male mice were collected and then the bone marrow was flushed from the femur according to the following: A 21-gauge needle was inserted into the femoral intramedular canal after the removal of the proximal and distal ends of the femur. […]
Assay of Cell Number: Following the addition of 1-mM naloxone or 1-mM naltrexone, viable cell number was determined with the MTT assay. […] MTT was measured at 570-nm and the effects of therapy on cell proliferation were determined by normalizing treated wells relative to mean values from non-treated wells: Fold change in cell number=100*[treated cells optical density/mean control optical density].

[3] = test system: monocytes cultured to become osteoclasts; assay: TRAP staining and assay of osteoclast number; assay type: cell-based, human, mouse
Method: TRAP Staining and the Assay of Osteoclast Number: Osteoclasts were derived from either an enriched population of human monocytes or from mouse non-enriched whole bone marrow aspirates. Three human patient bone marrow samples were assayed in parallel with samples collected from 3-week (n=10) mouse bone marrow. The monocyte fraction was stimulated to become osteoclasts by culturing 1×10^6 cells with 25-ng/mL of MCSF and 25-ng/mL of recombinant human or mouse RANK-ligand (R&D Systems) in the presence of the met5-ligand ([5-μM] 2.87-, or [50-μM] 28.7-μg; Sigma), naloxone (400-ng or 400-μg; Sigma) or naltrexone (378-ng or 378-μg; Sigma). Osteoclasts were stained with tartrate resistant acid phosphatase (TRAP; Sigma Leukocyte Acid Phosphatase Kit 387-A) and counted when cells stained TRAP-positive and had at least three nuclei. Estimates of osteoclast number were obtained by Cavalieri sampling and a modification of the fractionator technique.

[4] = test system: unicortical defect in mouse tibia; assay: Opioid antagonist containing collagen implant in unicortical defect model, microCT; assay type: in vivo, C57BL/6 mice; settings: 7 days after surgery
Excerpt: Implantation of Opioid Antagonist Containing Collagen Implant into a Unicortical Defect Model: Male 5-week old C57BL/6 mice (n=5 per treatment group for a total of 25 total animals) were used in this study. […] Unicortical defects were surgically administered through a small incision (approximately 3-mm) made just below the knee joint, located on the medial side of the tibia just below the tibial tuberosity on the tibial crest. In 5-weeks old male mice, the physeal plate is clearly visible and the drill bit was placed approximately 1-mm below this point. The drill-bit produces a unicortical defect with dimensions 300-μm diameter×1-mm depth. […] In parallel, a separate group of animals served as non-surgical controls. Mice were euthanized 7-days after surgery, hind limbs were collected and tibias were prepared for micro-CT (μCT) analysis.
MicroCT Analysis of Unicortical Defects: High-resolution images of the tibia were acquired with μCT imaging system (μT40; Scanco Medical). Tibias were scanned at 45-keV with an isotropic voxel size of 12-μm. An analysis region was selected from axial sections to include the entire unicortical defect bounded by the endosteal cortical wall. The volume corrected bone volume (bone volume/total volume; By/Tv), trabecular number (TbN) and trabecular thickness (TbTh) were calculated using the Scanco software.

[5] = test system: posterolateral lumbar spine; assay: Rat posterolateral spinal fusion of L5-L6 vertebrae, microCT; assay type: in vivo, Sprague-Dawley rats; settings: 2-months
Excerpt: Rat Posterolateral Spinal Fusion of L5-L6 Vertebrae: 20 male, […] skeletally mature Sprague-Dawley rats underwent bilateral lumbar posterolateral spinal fusion at the L5-L6 vertebrae. […] Under sterile conditions a 2-cm long posterior midline incision centered at L5-L6 vertebrae was made. A muscle-splitting approach was used, lateral to the facet joints, to expose the transverse processes of a particular vertebra. A high-speed 1-mm burr was used to decorticate the transverse processes of the L5-L6 vertebrae. Implants were prepared and implanted between the transverse processes bilaterally in the paraspinal muscle bed. […] Animals were euthanized 2-months (n=5 rats per time point per treatment group for a total of n=20 rats) spines were collected and prepared for micro-CT (μCT) analysis.

[6] = test system: SaO52 osteosarcoma tumor cells; assay: Assay of cell number (MTT), osteosarcoma cells; assay type: cell-based; settings: 1-mM, seventy-two hours
Excerpt: (§2) Methods: Human bone marrow was collected from consenting adult patients undergoing either an elective primary proximal femoral total hip arthroplasty or elective primary distal femoral total knee arthroplasty (n=6, mean age 65) as a part of an IRB approved study. Human MSC were derived from the adherent fraction of whole bone marrow aspirates. Ewing's sarcoma tumor cells (RDES, Hs822 and Hs863) and SaOS2 osteosarcoma tumor cells were obtained from ATCC. Cells were maintained in Dulbecco's Modification of Eagle's Media (DMEM) containing 10% fetal calf serum (v/v) and 1% penicillin-streptomycin-glutamine (PSG; Cellgro, Mediatech).
as §1

[7] = test system: RDES Ewing's sarcoma of bone tumor cells; assay: Assay of cell number (MTT), RDES cells; assay type: cell-based; settings: 1-mM, seventy-two hours
Excerpt: as §2, §1

[8] = collagen implant, 25-ng BMP2, 1-mM naltrexone or 1-mM naloxone

## C=CCN1CC[C@]23c4c5ccc(O)c4O[C@H]2C(=O)CC[C@@]3(O)[C@H]1C5 [naloxone]
[1]; 72-hours
  MSC proliferation (cell number): suppressed, but did not stop
[1]; 120-hours
  MSC proliferation (cell number): suppressed, but did not stop
[2]
  proliferation (cell number) in monocyte cultures: decreased proliferation
[3]; 1-mM
  osteoclast number (TRAP staining): reduced osteoclast number substantially
[3]; 1-μM
  osteoclast number (TRAP staining): did not significantly reduce osteoclast number
[4]; 1-mM naloxone with collagen implant
  increase in trabecular thickness relative to all other treatment groups: approximately 37%
[4]; collagen implant
  Bv/Tv relative to non-surgical controls: increased relative to non-surgical controls
  trabecular thickness (TbTh) relative to the control non-surgical group: increased within the defect significantly
[4]; collagen implant, 1-mM
  increase in Bv/Tv relative to BMP2 treatment group: 18.2%
[4]; [8]
  increase in Bv/Tv relative to the PBS treated group: 56.5%
  increase in Bv/Tv relative to the surgical control group: 83.8%
[5]; collagen sponge implant, 25-ng BMP2 or 1-mM naloxone
  bone formation in the lumbar spine versus collagen implants alone: increased bone formation over the collagen implants alone
[5]; naloxone infused collagen implant, 1-mM
  Bv/Tv relative to spines implanted with collagen or the control sham surgery group: substantial increase in By/Tv
[6]
  SaO52 osteosarcoma cell number relative to control cultures: decreased significantly
[7]
  RDES tumor cell number relative to control cultures: decreased significantly
